{"source": "patent US12564582B2", "about": "(Prilenia Neurotherapeutics Ltd., priority 2016, dated 2026)", "key": {"L-DOPA-induced dystonia": {"test_system": "L-DOPA-induced dystonia", "text": "Data are median (FIG. 19A) with individual values (FIG. 19BB). N=8 for all treatment groups. */**/*** represents P<0.05, P<0.01 or P<0.001 cf. vehicle-treatment. 2-way RM ANOVA (FIG. 19A) with Holm-Sidak's test or Friedman test with Dunn's test (FIG. 19B)."}, "rat striatum": {"test_system": "rat striatum", "conditions": "transcriptomic analysis (Geva 2016); cited from earlier work"}, "[1]": {"test_system": "patients with Huntington's disease", "conditions": "Week 26; for Δ to placebo, change from baseline in UHDRS TMS Chorea: ALL; for Wk 26 Δ to placebo, change from baseline in UHDRS TMS Chorea: Stage 1 BL TFC 11-13", "text": "In the UHDRS, maximal chorea was scored from 0 (absent) to 4 (marked/prolonged) on each of the following items: face, mouth, trunk, right upper extremity, left upper extremity, right lower extremity, and left lower extremity. Maximal chorea is the sum of all scores."}, "[2]": {"test_system": "patients with Huntington's disease", "conditions": "Week 52", "text": "Motor deficits can be objectively assessed using different Q-Motor assessments. All Q-Motor assessments are based on the application of precalibrated and temperature controlled force transducers and 3-dimensional position sensors with very high sensitivity and test-retest reliability across sessions and sites in a multicenter clinical study. Q-Motor measures thus aim to reduce the limited sensitivity of categorical clinical rating scales, the intra- and inter-rater variability, and placebo effects observed in scales such as UHDRS-TMS. In addition, Q-Motor assessments allow for the objective monitoring of unintended motor side-effects in clinical studies. Thus, Q-Motor is an objective, reliable, and sensitive measure of motor function that is free of rater bias and limits placebo effect influence.\nThis task assessed the regularity of hand taps performed when alternating between the palm and dorsal surface of the hand performing a repetitive pronation/supination movement. The force and duration of the hand taps are recorded similarly to the speeded tapping task. A tone cues the start and end of an assessment. Five trials of 10 seconds duration are performed with each hand."}, "neuroblastoma cell line": {"test_system": "neuroblastoma cell line", "conditions": "SIR-dependent manner (Geva 2016); cited from earlier work"}, "[3]": {"test_system": "patients with Huntington's disease", "text": "In the UHDRS, maximal dystonia was scored from 0 (absent) to 4 (marked/prolonged) on each of the following items: trunk, right upper extremity, left upper extremity, right lower extremity, and left lower extremity. Maximal dystonia is the sum of all scores."}, "[4]": {"test_system": "patients with DYT1 and other primary genetic forms of dystonia", "conditions": "45 mg b.i.d., 90 mg b.i.d.; 26 weeks", "description": "The study population consists of those with DYT1 and other primary genetic forms of dystonia, as confirmed by genetic testing. The study's other inclusion criteria are patients with a BFMD score greater than 6, male or female patients, patients of any race or ethnicity, and patients with the ability to provide informed consent.\nBurke-Fahn-Marsden Dystonia Rating Scale (BFMDRS) Rating Scale evaluates nine body parts (eyes, mouth, speech, swallowing, neck, trunk, right arm, right leg, left arm, and left leg) by rating the severity factor and provoking factors for each part on a 5 point scale of 0 (no dystonia) to 4 (indicating the presence of dystonia at rest). The dystonia scores of the eyes, mouth and neck are assigned a weighting factor of 0.5, while the other 6 parts are assigned a weighting factor of 1.0. The score of each part is obtained by multiplying the provoking factor by the severity factor and the weighting factor, and then summing the scores of each part. The maximum score possible is 120. A higher score indicates more severe dystonia. […]"}}, "note": "Where two headings read alike, the source gives them in different places."}
{"smiles": "CCCN1CCC(c2cccc(S(C)(=O)=O)c2)CC1", "note": "[pridopidine, 4-[3-(methylsulfonyl)phenyl]-1-propyl-piperidine]", "values": [{"measurement": "levels of dystonia, significance cf. LDh-vehicle", "setting": "L-DOPA-induced dystonia; 30 mg/kg, 1 h epoch 5", "result": "ns"}, {"measurement": "levels of dystonia, significance cf. LDh-vehicle", "setting": "L-DOPA-induced dystonia; 30 mg/kg, 1 h epoch 6", "result": "ns"}, {"measurement": "median levels of dystonia (printed dyskinesia)", "setting": "L-DOPA-induced dystonia; 30 mg/kg, cumulated over 0-2 h", "result": "below mild (non-disabling)"}, {"measurement": "reduction of median levels of dystonia compared to LDh-vehicle", "setting": "L-DOPA-induced dystonia; 30 mg/kg, cumulated over 0-2 h", "result": 72, "unit": "%"}, {"measurement": "median levels of dystonia", "setting": "L-DOPA-induced dystonia; 30 mg/kg, first, second and third hours", "result": "mild to moderate"}, {"measurement": "levels of L-DOPA-induced dystonia evoked by LDh", "setting": "L-DOPA-induced dystonia; 15, 20, 30 mg/kg combined with LDh", "result": "significant and dose-dependent reduction"}, {"measurement": "expression of the BDNF, dopamine receptor 1 (D1R), glucocorticoid receptor (GR) and Akt/PI3K pathways", "setting": "rat striatum", "result": "activates expression"}, {"measurement": "Δ to placebo, change from baseline in UHDRS TMS Chorea", "setting": "[1]; 45 mg bid", "result": 0.92}, {"measurement": "Wk 26 Δ to placebo, change from baseline in UHDRS TMS Chorea", "setting": "[1]; 45 mg bid", "result": "−1.4"}, {"measurement": "Δ to placebo, change from baseline in UHDRS TMS Chorea", "setting": "[1]; 67.5 mg bid", "result": 0.81}, {"measurement": "Wk 26 Δ to placebo, change from baseline in UHDRS TMS Chorea", "setting": "[1]; 67.5 mg bid", "result": "−2.07"}, {"measurement": "Δ to placebo, change from baseline in UHDRS TMS Chorea", "setting": "[1]; 90 mg bid", "result": 0.36}, {"measurement": "Wk 26 Δ to placebo, change from baseline in UHDRS TMS Chorea", "setting": "[1]; 90 mg bid", "result": "−2.52"}, {"measurement": "Δ to placebo, change from baseline in UHDRS TMS Chorea", "setting": "[1]; 112.5 mg bid", "result": 1.05}, {"measurement": "Wk 26 Δ to placebo, change from baseline in UHDRS TMS Chorea", "setting": "[1]; 112.5 mg bid", "result": "−1.08"}, {"measurement": "Wk 52 Δ to placebo, change from baseline in Q-Motor: Pro-Sup-Frequency-MN-Hand", "setting": "[2]; 45 mg bid, FAS", "result": 0.0599, "unit": "Hz"}, {"measurement": "Wk 52 Δ to placebo, change from baseline in Q-Motor: Pro-Sup-Frequency-MN-Hand", "setting": "[2]; 45 mg bid, HD1 and HD2 patients", "result": 0.1195, "unit": "Hz"}, {"measurement": "Wk 52 Δ to placebo, change from baseline in Q-Motor: Pro-Sup-Frequency-MN-Hand", "setting": "[2]; 67.5 mg bid, FAS", "result": "−0.0124", "unit": "Hz"}, {"measurement": "Wk 52 Δ to placebo, change from baseline in Q-Motor: Pro-Sup-Frequency-MN-Hand", "setting": "[2]; 67.5 mg bid, HD1 and HD2 patients", "result": 0.0548, "unit": "Hz"}, {"measurement": "Wk 52 Δ to placebo, change from baseline in Q-Motor: Pro-Sup-Frequency-MN-Hand", "setting": "[2]; 90 mg bid, FAS", "result": "−0.0087", "unit": "Hz"}, {"measurement": "Wk 52 Δ to placebo, change from baseline in Q-Motor: Pro-Sup-Frequency-MN-Hand", "setting": "[2]; 90 mg bid, HD1 and HD2 patients", "result": 0.0575, "unit": "Hz"}, {"measurement": "Wk 52 Δ to placebo, change from baseline in Q-Motor: Pro-Sup-Frequency-MN-Hand", "setting": "[2]; 112.5 mg bid, FAS", "result": 0.0127, "unit": "Hz"}, {"measurement": "Wk 52 Δ to placebo, change from baseline in Q-Motor: Pro-Sup-Frequency-MN-Hand", "setting": "[2]; 112.5 mg bid, HD1 and HD2 patients", "result": 0.08, "unit": "Hz"}, {"measurement": "secretion of brain-derived neurotrophic factor (BDNF)", "setting": "neuroblastoma cell line", "result": "enhances secretion"}, {"measurement": "Δ to placebo, change from baseline in UHDRS TMS Dystonia", "setting": "[3]; 45 mg bid, Week 26, ALL", "result": "−0.06"}, {"measurement": "Δ to placebo, change from baseline in UHDRS TMS Dystonia", "setting": "[3]; 45 mg bid, Week 26, Stage 1 BL TFC 11-13", "result": "−0.99"}, {"measurement": "Δ to placebo, change from baseline in UHDRS TMS Dystonia", "setting": "[3]; 45 mg bid, Week 52, Stage 1 BL TFC 11-13", "result": "−1.65"}, {"measurement": "Δ to placebo, change from baseline in UHDRS TMS Dystonia", "setting": "[3]; 45 mg bid, Week 52, all pridopidine treated patients", "result": "−0.39"}, {"measurement": "Δ to placebo, change from baseline in UHDRS TMS Dystonia", "setting": "[3]; 45 mg bid, week 26, BL TFC ≥9 and CAG Repeats <44 and BL TMS 1st 3 Qs", "result": "−1.53"}, {"measurement": "Δ to placebo, change from baseline in UHDRS TMS Dystonia", "setting": "[3]; 45 mg bid, week 26, BL TFC≥9 AND CAG Repeats <44", "result": "−1.54"}, {"measurement": "Δ to placebo, change from baseline in UHDRS TMS Dystonia", "setting": "[3]; 45 mg bid, week 26, CAG Repeats <44 AND BL TMS 1st 3 Qs", "result": "−1.04"}, {"measurement": "Δ to placebo, change from baseline in UHDRS TMS Dystonia", "setting": "[3]; 67.5 mg bid, Week 26, ALL", "result": "−0.34"}, {"measurement": "Δ to placebo, change from baseline in UHDRS TMS Dystonia", "setting": "[3]; 67.5 mg bid, Week 26, Stage 1 BL TFC 11-13", "result": "−0.89"}, {"measurement": "Δ to placebo, change from baseline in UHDRS TMS Dystonia", "setting": "[3]; 67.5 mg bid, Week 52, Stage 1 BL TFC 11-13", "result": "−0.1"}, {"measurement": "Δ to placebo, change from baseline in UHDRS TMS Dystonia", "setting": "[3]; 67.5 mg bid, Week 52, all pridopidine treated patients", "result": "−0.35"}, {"measurement": "Δ to placebo, change from baseline in UHDRS TMS Dystonia", "setting": "[3]; 67.5 mg bid, week 26, BL TFC ≥9 and CAG Repeats <44 and BL TMS 1st 3 Qs", "result": "−1.6"}, {"measurement": "Δ to placebo, change from baseline in UHDRS TMS Dystonia", "setting": "[3]; 67.5 mg bid, week 26, BL TFC≥9 AND CAG Repeats <44", "result": "−1.58"}, {"measurement": "Δ to placebo, change from baseline in UHDRS TMS Dystonia", "setting": "[3]; 67.5 mg bid, week 26, CAG Repeats <44 AND BL TMS 1st 3 Qs", "result": "−1.15"}, {"measurement": "Δ to placebo, change from baseline in UHDRS TMS Dystonia", "setting": "[3]; 90 mg bid, Week 26, ALL", "result": "−0.33"}, {"measurement": "Δ to placebo, change from baseline in UHDRS TMS Dystonia", "setting": "[3]; 90 mg bid, Week 26, Stage 1 BL TFC 11-13", "result": "−1.56"}, {"measurement": "Δ to placebo, change from baseline in UHDRS TMS Dystonia", "setting": "[3]; 90 mg bid, Week 52, Stage 1 BL TFC 11-13", "result": "−1.46"}, {"measurement": "Δ to placebo, change from baseline in UHDRS TMS Dystonia", "setting": "[3]; 90 mg bid, Week 52, all pridopidine treated patients", "result": "−0.27"}, {"measurement": "Δ to placebo, change from baseline in UHDRS TMS Dystonia", "setting": "[3]; 90 mg bid, week 26, BL TFC ≥9 and CAG Repeats <44 and BL TMS 1st 3 Qs", "result": "−1.64"}, {"measurement": "Δ to placebo, change from baseline in UHDRS TMS Dystonia", "setting": "[3]; 90 mg bid, week 26, BL TFC≥9 AND CAG Repeats <44", "result": "−1.72"}, {"measurement": "Δ to placebo, change from baseline in UHDRS TMS Dystonia", "setting": "[3]; 90 mg bid, week 26, CAG Repeats <44 AND BL TMS 1st 3 Qs", "result": "−1"}, {"measurement": "Δ to placebo, change from baseline in UHDRS TMS Dystonia", "setting": "[3]; 112.5 mg bid, Week 26, ALL", "result": "−0.29"}, {"measurement": "Δ to placebo, change from baseline in UHDRS TMS Dystonia", "setting": "[3]; 112.5 mg bid, Week 26, Stage 1 BL TFC 11-13", "result": "−0.53"}, {"measurement": "Δ to placebo, change from baseline in UHDRS TMS Dystonia", "setting": "[3]; 112.5 mg bid, Week 52, Stage 1 BL TFC 11-13", "result": "−0.46"}, {"measurement": "Δ to placebo, change from baseline in UHDRS TMS Dystonia", "setting": "[3]; 112.5 mg bid, Week 52, all pridopidine treated patients", "result": "−0.24"}, {"measurement": "Δ to placebo, change from baseline in UHDRS TMS Dystonia", "setting": "[3]; 112.5 mg bid, week 26, BL TFC ≥9 and CAG Repeats <44 and BL TMS 1st 3 Qs", "result": "−1.29"}, {"measurement": "Δ to placebo, change from baseline in UHDRS TMS Dystonia", "setting": "[3]; 112.5 mg bid, week 26, BL TFC≥9 AND CAG Repeats <44", "result": "−1.4"}, {"measurement": "Δ to placebo, change from baseline in UHDRS TMS Dystonia", "setting": "[3]; 112.5 mg bid, week 26, CAG Repeats <44 AND BL TMS 1st 3 Qs", "result": "−0.62"}, {"measurement": "dystonia score, change from baseline", "setting": "[3]; baseline total dystonia score≥4, Week 52, all treatment groups, greatest decreases for 45, 67.5 and 90 mg bid", "result": "directional clinical improvement"}, {"measurement": "dystonia score, change from baseline", "setting": "[3]; full analysis set, Week 26 or Week 52, all active treatment groups", "result": "no clinically meaningful changes from baseline"}, {"measurement": "secondary outcomes (CGI, Patient Global Assessment, VAS pain, BFMDS, EQ-5D, SF-36 etc.)", "setting": "[4]", "result": "improve the secondary outcomes"}, {"measurement": "severity of dystonia (BFMDRS or UDRS), primary endpoint", "setting": "[4]", "result": "improve the severity of dystonia"}]}
